Data set [1] in a line: Tissue biodistribution and regional brain uptake in rats. The class given is in vivo, male Sprague-Dawley rats. As to conditions: for Blood uptake: i.v., mean ± SD.
The target in data set [2] is T1, human VAChT (Homo sapiens, UniProt Q16572).
T1 sequence (Q16572 1-532): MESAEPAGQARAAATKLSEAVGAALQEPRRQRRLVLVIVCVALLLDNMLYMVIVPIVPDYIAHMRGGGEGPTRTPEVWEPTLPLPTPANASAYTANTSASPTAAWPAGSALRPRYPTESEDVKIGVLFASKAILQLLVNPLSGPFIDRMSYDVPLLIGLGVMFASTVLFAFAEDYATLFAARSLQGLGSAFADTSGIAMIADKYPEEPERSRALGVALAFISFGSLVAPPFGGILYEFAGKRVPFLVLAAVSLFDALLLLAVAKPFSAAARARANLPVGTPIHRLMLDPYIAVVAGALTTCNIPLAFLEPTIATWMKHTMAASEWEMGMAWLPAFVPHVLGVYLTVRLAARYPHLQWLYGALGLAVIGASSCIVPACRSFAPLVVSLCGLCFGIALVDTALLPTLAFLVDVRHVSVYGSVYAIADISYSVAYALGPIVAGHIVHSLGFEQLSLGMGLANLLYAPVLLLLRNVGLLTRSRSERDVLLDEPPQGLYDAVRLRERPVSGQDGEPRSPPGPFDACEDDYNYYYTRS
Description: VAChT binding, competition against [^3H]vesamicol. As to conditions: for Ki: VAChT (Ki [nM]), [^3H]vesamicol competition, mean ± SEM.

Where a name gives a salt, the structure may show the parent alone.

In general, IC50 refers to the concentration that gives 50% inhibition. Lower therefore signals higher potency. As a reminder, the Ki is a dissociation constant, usually derived from enzyme kinetics or from competition with a known ligand. A higher Ki goes with lower affinity.

In data set [1] (5 min p.i.), `O=C(c1ccc([18F])cc1)C1CCN([C@@H]2Cc3ccccc3C[C@H]2O)CC1` (racemic) [(±)-[^18F]9e, (±)-trans-2-Hydroxy-3-(4-(4-[^18F]fluorobenzoyl)piperidino)tetralin] gave a Bone uptake of 0.307 ± 0.011 %ID/g, a Brain uptake of 0.606 ± 0.100 %ID/g, a Fat uptake of 0.088 ± 0.026 %ID/g and a Heart uptake of 0.328 ± 0.014 %ID/g. In data set [1] (5 min p.i.), this compound yielded a Liver uptake of 1.939 ± 0.382 %ID/g and a Muscle uptake of 0.079 ± 0.015 %ID/g. The Blood uptake in data set [1] (5 min p.i., n=4 rats) is given as 0.122 ± 0.023 %ID/g. The compound further registered a Bone uptake in data set [1] (5 min p.i., listed as racemic [^18F]9e) of 0.31 %ID/g. In data set [1] (30 min p.i.), the Bone uptake worked out at 0.445 ± 0.032 %ID/g, the Brain uptake was 0.153 ± 0.044 %ID/g, the Fat uptake worked out at 0.177 ± 0.039 %ID/g and the Heart uptake came out at 0.141 ± 0.005 %ID/g. Also, in data set [1] (30 min p.i.), the Liver uptake came out at 1.504 ± 0.271 %ID/g, the Lung uptake came out at 0.553 ± 0.056 %ID/g and the Muscle uptake stood at 0.071 ± 0.006 %ID/g. The compound also showed a Blood uptake in data set [1] (30 min p.i., n=4 rats) of 0.071 ± 0.009 %ID/g. In data set [1] (1 h p.i.), this compound yielded a Bone uptake of 0.623 ± 0.080 %ID/g, a Brain uptake of 0.095 ± 0.012 %ID/g, a Fat uptake of 0.196 ± 0.035 %ID/g and a Heart uptake of 0.094 ± 0.008 %ID/g. In data set [1] (1 h p.i.), the Lung uptake is given as 0.346 ± 0.045 %ID/g and the Muscle uptake came out at 0.076 ± 0.012 %ID/g. In data set [1] (1 h p.i., n=4 rats), this compound showed a Blood uptake of 0.043 ± 0.003 %ID/g. In data set [1] (2 h p.i.), this compound returned a Bone uptake of 0.739 ± 0.044 %ID/g, a Brain uptake of 0.059 ± 0.008 %ID/g, a Fat uptake of 0.173 ± 0.042 %ID/g and a Heart uptake of 0.056 ± 0.007 %ID/g. For the same compound, in data set [1] (2 h p.i.), the Kidney uptake is on record as 0.853 ± 0.171 %ID/g, the Liver uptake came to 1.188 ± 0.158 %ID/g, the Lung uptake is listed as 0.223 ± 0.014 %ID/g and the Muscle uptake came to 0.047 ± 0.006 %ID/g. The compound further yielded a Blood uptake in data set [1] (2 h p.i., n=4 rats) of 0.027 ± 0.004 %ID/g.
In turn, `O=C(c1ccccc1)C1CCN([C@@H]2Cc3ccccc3C[C@H]2O)CC1` (racemic) [Compound 9a, (±)-trans-2-Hydroxy-3-(4-benzoylpiperidino)tetralin hydrochloride] came in with an IC50 in data set [2] of 4.3 ± 1 nM.
Consider `O=C(c1ccc(Br)cc1)C1CCN([C@@H]2Cc3ccccc3C[C@H]2O)CC1` (racemic) [Compound 9b, (±)-trans-2-Hydroxy-3-(4-(4-bromobenzoyl)piperidino)tetralin hydrochloride], for which the IC50 in data set [2] amounted to 0.25 ± 0.02 nM.
Same read-out and setting: the value for `Nc1ccc(C(=O)C2CCN([C@@H]3Cc4ccccc4C[C@H]3O)CC2)cc1` (racemic) [Compound 9c, (±)-trans-2-Hydroxy-3-(4-(4-aminobenzoyl)piperidino)tetralin] was 1.68 ± 0.04 nM; that for `O=C(c1ccc([N+](=O)[O-])cc1)C1CCN([C@@H]2Cc3ccccc3C[C@H]2O)CC1` (racemic) [Compound 9d, (±)-trans-2-Hydroxy-3-(4-(4-nitrobenzoyl)piperidino)tetralin] was 0.48 ± 0.03 nM.
In data set [2], `O=C(c1ccc(F)cc1)C1CCN([C@@H]2Cc3ccccc3C[C@H]2O)CC1` (relative stereo) [(±)9e, (±)-trans-2-Hydroxy-3-(4-(4-fluorobenzoyl)piperidino)tetralin] displayed an IC50 of 2.7 ± 0.4 nM and a Ki of 2.7 ± 0.4 nM.
With `O=C(c1ccc(F)cc1)C1CCN([C@@H]2Cc3ccccc3C[C@H]2O)CC1` (single isomer, unassigned) [(+)-9e], the affinity in data set [2], expressed as Ki, was 108 ± 15 nM.
In data set [1] (5 min p.i.), “(+)-trans-2-Hydroxy-3-(4-(4-[^18F]fluorobenzoyl)piperidino)tetralin [(+)-[^18F]9e]” displayed a Bone uptake of 0.187 ± 0.015 %ID/g, a Brain uptake of 0.350 ± 0.040 %ID/g, a Fat uptake of 0.052 ± 0.017 %ID/g and a Heart uptake of 0.194 ± 0.006 %ID/g. In data set [1] (5 min p.i.), this compound registered a Kidney uptake of 0.791 ± 0.123 %ID/g, a Liver uptake of 1.849 ± 0.566 %ID/g, a Lung uptake of 0.904 ± 0.161 %ID/g and a Muscle uptake of 0.047 ± 0.010 %ID/g. In data set [1] (5 min p.i.), the “Ratio Striatum: Cerebellum” value was 1.15 ± 0.04, the “Ratio Striatum: Cortex” value was 0.92 ± 0.02, the “Ratio Striatum: Hippocampus” value is reported as 0.99 ± 0.04 and the “Ratio Striatum: Total Brain” value was 1.02 ± 0.03. The compound further came in with a Blood uptake in data set [1] (5 min p.i., n=4 rats) of 0.136 ± 0.020 %ID/g. For the same compound, in data set [1] (5 min p.i., %ID/g striatum divided by %ID/g non-striatal tissue, n=4 rats), the “Ratio Striatum: Blood” value came out at 2.67 ± 0.57. In data set [1] (30 min p.i.), this compound yielded a Bone uptake of 0.277 ± 0.080 %ID/g, a Brain uptake of 0.071 ± 0.012 %ID/g, a Fat uptake of 0.108 ± 0.053 %ID/g and a Heart uptake of 0.094 ± 0.013 %ID/g. In data set [1] (30 min p.i.), this compound showed a Kidney uptake of 0.416 ± 0.048 %ID/g, a Liver uptake of 1.239 ± 0.271 %ID/g, a Lung uptake of 0.332 ± 0.073 %ID/g and a Muscle uptake of 0.051 ± 0.010 %ID/g. In data set [1] (30 min p.i.), the “Ratio Striatum: Blood” value was determined as 0.95 ± 0.18, the “Ratio Striatum: Cerebellum” value came to 1.3 ± 0.07, the “Ratio Striatum: Cortex” value is 1.08 ± 0.09 and the “Ratio Striatum: Hippocampus” value is recorded as 0.93 ± 0.03. In addition, in data set [1] (30 min p.i.), the “Ratio Striatum: Total Brain” value was 1.13 ± 0.04. Further, the Blood uptake in data set [1] (30 min p.i., n=4 rats) is listed as 0.087 ± 0.016 %ID/g. In addition, in data set [1] (1 h p.i.), the Bone uptake turned out to be 0.399 ± 0.078 %ID/g, the Brain uptake came to 0.041 ± 0.002 %ID/g, the Fat uptake was 0.154 ± 0.065 %ID/g and the Heart uptake was 0.051 ± 0.005 %ID/g. In data set [1] (1 h p.i.), this compound gave a Kidney uptake of 0.291 ± 0.032 %ID/g, a Liver uptake of 0.814 ± 0.120 %ID/g, a Lung uptake of 0.188 ± 0.035 %ID/g and a Muscle uptake of 0.034 ± 0.008 %ID/g. Besides, in data set [1] (1 h p.i.), the “Ratio Striatum: Blood” value was determined as 0.9 ± 0.23, the “Ratio Striatum: Cerebellum” value is given as 1.17 ± 0.12, the “Ratio Striatum: Cortex” value was determined as 0.95 ± 0.09 and the “Ratio Striatum: Hippocampus” value came to 0.98 ± 0.14. In data set [1] (1 h p.i.), the “Ratio Striatum: Total Brain” value is recorded as 1.02 ± 0.09. Moreover, in data set [1] (1 h p.i., n=4 rats), the Blood uptake was found to be 0.048 ± 0.007 %ID/g. Moreover, in data set [1] (2 h p.i.), the Bone uptake was determined as 0.532 ± 0.096 %ID/g, the Brain uptake stood at 0.022 ± 0.004 %ID/g, the Fat uptake was 0.150 ± 0.062 %ID/g and the Heart uptake turned out to be 0.031 ± 0.006 %ID/g. Moreover, in data set [1] (2 h p.i.), the Kidney uptake amounted to 0.194 ± 0.027 %ID/g, the Liver uptake is reported as 0.692 ± 0.081 %ID/g, the Lung uptake is on record as 0.112 ± 0.023 %ID/g and the Muscle uptake is 0.022 ± 0.005 %ID/g. Moreover, in data set [1] (2 h p.i.), the “Ratio Striatum: Blood” value was found to be 0.87 ± 0.11, the “Ratio Striatum: Cerebellum” value came to 1.14 ± 0.09, the “Ratio Striatum: Cortex” value was 0.91 ± 0.15 and the “Ratio Striatum: Hippocampus” value is listed as 0.99 ± 0.08. In addition, the “Ratio Striatum: Total Brain” value in data set [1] (2 h p.i.) worked out at 1.04 ± 0.06. In data set [1] (2 h p.i., n=4 rats), this compound returned a Blood uptake of 0.027 ± 0.002 %ID/g.

The record behind these values is PMC2765529 (Journal of medicinal chemistry, 2009).
